Data reported in PubChem BioAssay (NCI).
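Grown in 96-well plates, cells were treated for 48 hours with each compound at five concentrations. Insufficient inhibition: endpoint recorded as highest concentration tested. TGI: total growth inhibition.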

Key:
Test in all cases: growth of human tumour cells (NCI), 48 h
[1] = test system: NCI-H226 lung
[2] = test system: RXF 393 renal
[3] = test system: DMS 114 small cell lung
[4] = test system: HCC-2998 colon
[5] = test system: MCF7 breast
[6] = test system: SK-MEL-28 melanoma
[7] = test system: A549 NSCLC
[8] = test system: BT-549 breast
[9] = test system: HT29 colon
[10] = test system: U251 CNS
[11] = test system: RXF-631 renal
[12] = test system: NCI-H460 lung
[13] = test system: MDA-MB-231 breast
[14] = test system: SN12C renal
[15] = test system: CAKI-1 renal
[16] = test system: LOX IMVI melanoma
[17] = test system: NCI/ADR-RES ovarian
[18] = test system: RPMI-8226 leukemia
[19] = test system: MDA-N
[20] = test system: OVCAR-4 ovarian
[21] = test system: M14 melanoma
[22] = test system: SF-539 CNS
[23] = test system: UACC-62 melanoma
[24] = test system: IGROV1 ovarian
[25] = test system: EKVX NSCLC
[26] = test system: UO-31 renal
[27] = test system: KM12 colon
[28] = test system: CCRF-CEM leukemia
[29] = test system: KM20L2 colon
[30] = test system: HOP-92 NSCLC
[31] = test system: SW-620 colon
[32] = test system: LXFL 529 NSCLC
[33] = test system: HCT-15 colon
[34] = test system: K-562 leukemia
[35] = test system: HOP-62 NSCLC
[36] = test system: M19-MEL melanoma
[37] = test system: SNB-19 CNS
[38] = test system: OVCAR-8 ovarian
[39] = test system: ACHN renal
[40] = test system: UACC-257 melanoma
[41] = test system: SNB-78 CNS
[42] = test system: 786-0 renal
[43] = test system: SK-MEL-5 melanoma
[44] = test system: DMS 273 small cell lung
[45] = test system: COLO 205 colon
[46] = test system: HCT-116 colon
[47] = test system: SF-268 CNS
[48] = test system: T-47D breast
[49] = test system: OVCAR-3 ovarian
[50] = test system: DLD-1 colon
[51] = test system: SF-295 CNS
[52] = test system: SK-OV-3 ovarian
[53] = test system: HL-60(TB) leukemia
[54] = test system: MDA-MB-435
[55] = test system: TK-10 renal
[56] = test system: SK-MEL-2 melanoma
[57] = test system: SR leukemia
[58] = test system: DU-145 prostate
[59] = test system: MALME-3M melanoma
[60] = test system: HS 578T breast
[61] = test system: MOLT-4 leukemia
[62] = test system: NCI-H23 lung
[63] = test system: PC-3 prostate
[64] = test system: NCI-H522 lung
[65] = test system: SNB-75 CNS
[66] = test system: A498 renal
[67] = test system: OVCAR-5 ovarian

**Q.** What does the source list for `CC(C)(C)C1CCC2(CC1)CCN(CCCN1CCOCC1)CC2`?
**A.** TGI [1]: > 100 µM; TGI [2]: > 82.3 µM; TGI [3]: 33.9 µM; TGI [4]: 35.4 µM; TGI [5]: > 100 µM; TGI [6]: 33.2 µM; TGI [7]: > 88.8 µM; TGI [8]: > 100 µM; TGI [9]: > 34.2 µM; TGI [10]: > 53.3 µM; TGI [11]: 31 µM; TGI [12]: > 100 µM; TGI [13]: > 100 µM; TGI [14]: > 100 µM; TGI [15]: > 88 µM; TGI [16]: > 52.3 µM; TGI [17]: > 100 µM; TGI [18]: 63.8 µM; TGI [19]: 89.9 µM; TGI [20]: > 100 µM; TGI [21]: 27.8 µM; TGI [22]: > 51.1 µM; TGI [23]: 25 µM; TGI [24]: > 100 µM; TGI [25]: > 100 µM; TGI [26]: > 100 µM; TGI [27]: > 100 µM; TGI [28]: > 100 µM; TGI [29]: 5.24 µM; TGI [30]: > 63.9 µM; TGI [31]: > 59.3 µM; TGI [32]: 21.5 µM; TGI [33]: > 57.9 µM; TGI [34]: 30.5 µM; TGI [35]: > 57.8 µM; TGI [36]: 25.9 µM; TGI [37]: > 100 µM; TGI [38]: > 100 µM; TGI [39]: > 100 µM; TGI [40]: 31.1 µM; TGI [41]: 91.9 µM; TGI [42]: 51 µM; TGI [43]: 21.4 µM; TGI [44]: 38.3 µM; TGI [45]: 32.7 µM; TGI [46]: > 59.7 µM; TGI [47]: > 100 µM; TGI [48]: > 100 µM; TGI [49]: > 100 µM; TGI [50]: > 100 µM; TGI [51]: > 61.7 µM; TGI [52]: > 100 µM; TGI [53]: 41.8 µM; TGI [54]: > 100 µM; TGI [55]: > 100 µM; TGI [56]: 53.2 µM; TGI [57]: > 100 µM; TGI [58]: > 100 µM; TGI [59]: 39.4 µM; TGI [60]: > 100 µM; TGI [61]: > 65.4 µM; TGI [62]: > 100 µM; TGI [63]: > 100 µM; TGI [64]: > 71.3 µM; TGI [65]: > 52.4 µM; TGI [66]: > 57.4 µM; TGI [67]: > 100 µM
